Active and inactive are the calls of the source. The rule behind the calls is not given here.
How the values were obtained:
Canis familiaris [1] = assay: Diuretic effect in mongrel dog assessed as urinary excretion of Cl- at 0.25 mg/kg, iv after 3 hrs (reference value: 0.08 +/- 0.02 mequiv/kg); type: functional, Canis lupus familiaris, Urine
Canis familiaris [2] = assay: Diuretic effect in mongrel dog assessed as urinary excretion of Na+ at 0.25 mg/kg, iv after 3 hrs (reference value: 0.10 +/- 0.02 mequiv/kg); type: functional, Canis lupus familiaris, Urine
Canis familiaris [3] = assay: Diuretic effect in mongrel dog assessed as urinary excretion of water at 1 mg/kg, po after 3 hrs (reference value: 0.93 +/- 0.35 ml/kg); type: functional, Canis lupus familiaris, Urine
Canis familiaris [4] = assay: Diuretic effect in mongrel dog assessed as urinary excretion of Cl- at 1 mg/kg, po after 3 hrs (reference value: 0.08 +/- 0.02 mequiv/kg); type: functional, Canis lupus familiaris, Urine
Canis familiaris [5] = assay: Diuretic effect in mongrel dog assessed as urinary excretion of K+ at 1 mg/kg, po after 3 hrs (reference value: 0.16 +/- 0.01 mequiv/kg); type: functional, Canis lupus familiaris, Urine
Canis familiaris [6] = assay: Diuretic effect in mongrel dog assessed as urinary excretion of K+ at 0.25 mg/kg, iv after 3 hrs (reference value: 0.16 +/- 0.01 mequiv/kg); type: functional, Canis lupus familiaris, Urine
Canis familiaris [7] = assay: Diuretic effect in mongrel dog assessed as urinary excretion of Na+ at 1 mg/kg, po after 3 hrs (reference value: 0.10 +/- 0.02 mequiv/kg); type: functional, Canis lupus familiaris, Urine
Canis familiaris [8] = assay: Diuretic effect in mongrel dog assessed as urinary excretion of water at 0.25 mg/kg, iv after 3 hrs (reference value: 0.93 +/- 0.35 ml/kg); type: functional, Canis lupus familiaris, Urine
Canis familiaris [9] = assay: Diuretic effect in mongrel dog assessed as urinary excretion of water at 1 mg/kg, iv after 3 hrs (reference value: 0.93 +/- 0.35 ml/kg); type: functional, Canis lupus familiaris, Urine
Canis familiaris [10] = assay: Diuretic effect in mongrel dog assessed as urinary excretion of Na+ at 1 mg/kg, iv after 3 hrs (reference value: 0.10 +/- 0.02 mequiv/kg); type: functional, Canis lupus familiaris, Urine
Canis familiaris [11] = assay: Diuretic effect in mongrel dog assessed as urinary excretion of Cl- at 1 mg/kg, iv after 3 hrs (reference value: 0.08 +/- 0.02 mequiv/kg); type: functional, Canis lupus familiaris, Urine
Canis familiaris [12] = assay: Diuretic effect in mongrel dog assessed as urinary excretion of K+ at 1 mg/kg, iv after 3 hrs (reference value: 0.16 +/- 0.01 mequiv/kg); type: functional, Canis lupus familiaris, Urine
Canis familiaris [13] = assay: Diuretic effect in mongrel dog assessed as urinary excretion of Na+ at 0.25 mg/kg, po after 3 hrs (reference value: 0.10 +/- 0.02 mequiv/kg); type: functional, Canis lupus familiaris, Urine
Canis familiaris [14] = assay: Diuretic effect in mongrel dog assessed as urinary excretion of Cl- at 1 mg/kg, po after 3 hrs (reference value: 0.08 +/- 0.02 mequiv/kg)
Canis familiaris [15] = assay: Diuretic effect in mongrel dog assessed as urinary excretion of water at 0.25 mg/kg, po after 3 hrs (reference value: 0.93 +/- 0.35 ml/kg); type: functional, Canis lupus familiaris, Urine
Canis familiaris [16] = assay: Diuretic effect in mongrel dog assessed as urinary excretion of Cl- at 0.25 mg/kg, po after 3 hrs (reference value: 0.08 +/- 0.02 mequiv/kg); type: functional, Canis lupus familiaris, Urine
Canis familiaris [17] = assay: Diuretic effect in mongrel dog assessed as urinary excretion of K+ at 0.25 mg/kg, po after 3 hrs (reference value: 0.16 +/- 0.01 mequiv/kg); type: functional, Canis lupus familiaris, Urine
Canis familiaris [18] = assay: Diuretic effect in mongrel dog assessed as urinary excretion of water at 0.1 mg/kg, iv after 3 hrs (reference value: 0.93 +/- 0.35 ml/kg); type: functional, Canis lupus familiaris, Urine
Canis familiaris [19] = assay: Diuretic effect in mongrel dog assessed as urinary excretion of K+ at 0.1 mg/kg, iv after 3 hrs (reference value: 0.16 +/- 0.01 mequiv/kg); type: functional, Canis lupus familiaris, Urine
Canis familiaris [20] = assay: Diuretic effect in mongrel dog assessed as urinary excretion of Cl- at 0.1 mg/kg, iv after 3 hrs (reference value: 0.08 +/- 0.02 mequiv/kg); type: functional, Canis lupus familiaris, Urine
Canis familiaris [21] = assay: Diuretic effect in mongrel dog assessed as urinary excretion of Na+ at 0.1 mg/kg, iv after 3 hrs (reference value: 0.10 +/- 0.02 mequiv/kg); type: functional, Canis lupus familiaris, Urine
Canis familiaris [22] = assay: Diuretic effect in mongrel dog assessed as urinary excretion of Na+ at 10 mg/kg, iv after 3 hrs (reference value: 0.10 +/- 0.02 mequiv/kg); type: functional, Canis lupus familiaris, Urine
Canis familiaris [23] = assay: Diuretic effect in mongrel dog assessed as urinary excretion of K+ at 10 mg/kg, iv after 3 hrs (reference value: 0.16 +/- 0.01 mequiv/kg); type: functional, Canis lupus familiaris, Urine
Canis familiaris [24] = assay: Diuretic effect in mongrel dog assessed as urinary excretion of water at 10 mg/kg, iv after 3 hrs (reference value: 0.93 +/- 0.35 ml/kg); type: functional, Canis lupus familiaris, Urine
Canis familiaris [25] = assay: Diuretic effect in mongrel dog assessed as urinary excretion of Cl- at 10 mg/kg, iv after 3 hrs (reference value: 0.08 +/- 0.02 mequiv/kg); type: functional, Canis lupus familiaris, Urine

Compound | Activity (Canis familiaris [9]) [mL/kg] | Activity (Canis familiaris [10]) [milliequivalent/kg] | Activity (Canis familiaris [11]) [milliequivalent/kg] | Activity (Canis familiaris [12]) [milliequivalent/kg] | Activity (Canis familiaris [9]; Canis lupus familiaris, Urine) | also measured
O=CNc1cc(C(=O)O)cc(OCc2ccsc2)c1C(=O)c1ccccc1 |  |  |  |  |  | Activity (Canis familiaris [1]): 2.8 milliequivalent/kg; Activity (Canis familiaris [2]): 2.2 milliequivalent/kg; Activity (Canis familiaris [3]): 26 mL/kg; Activity (Canis familiaris [4]): 4.1 milliequivalent/kg; Activity (Canis familiaris [5]): 0.64 milliequivalent/kg; Activity (Canis familiaris [6]): 0.49 milliequivalent/kg; Activity (Canis familiaris [7]): 3.1 milliequivalent/kg; Activity (Canis familiaris [8]): 17 mL/kg
O=CNc1cc(C(=O)O)cc(NCc2ccccc2)c1Oc1ccccc1 | 8 | 1.3 | 1.3 | 0.26 |  | Activity (Canis familiaris [1]): 1.5 milliequivalent/kg; Activity (Canis familiaris [2]): 1.1 milliequivalent/kg; Activity (Canis familiaris [6]): 0.23 milliequivalent/kg; Activity (Canis familiaris [8]): 9 mL/kg
O=C(O)c1cc(NC(=O)C(F)(F)F)c(C(=O)c2ccccc2)c(OCc2ccccc2)c1 |  |  |  |  |  | Activity (Canis familiaris [3]; Canis lupus familiaris, Urine): inactive
CC(=O)Nc1cc(C(=O)O)cc(OCc2ccccc2)c1C(=O)c1ccccc1 | 14 | 1.3 | 3 | 0.45 |  | 
O=CNc1cc(C(=O)O)cc(SCc2ccccc2)c1C(=O)c1ccccc1 | 26 | 2.8 |  | 0.27 |  | Activity (Canis familiaris [13]): 0.5 milliequivalent/kg; Activity (Canis familiaris [14]): 3.5 milliequivalent/kg; Activity (Canis familiaris [15]): 10 mL/kg; Activity (Canis familiaris [16]): 0.7 milliequivalent/kg; Activity (Canis familiaris [17]): 0.1 milliequivalent/kg
CCC(=O)Nc1cc(C(=O)O)cc(OCc2ccccc2)c1C(=O)c1ccccc1 | 7 | 0.6 | 0.9 | 0.2 |  | 
O=CNc1cc(C(=O)O)cc(OCc2ccccc2)c1-c1ccccc1 | 12 | 1.3 | 1.6 | 0.39 |  | 
O=CNc1cc(C(=O)O)cc(SCc2ccccc2)c1-c1ccccc1 |  |  |  |  | inactive | 
NS(=O)(=O)c1cc(C(=O)O)cc(OCc2ccccc2)c1C(=O)c1ccccc1 |  |  |  |  |  | Activity (Canis familiaris [13]): 3.6 milliequivalent/kg; Activity (Canis familiaris [18]): 12 mL/kg; Activity (Canis familiaris [15]): 33 mL/kg; Activity (Canis familiaris [16]): 4.4 milliequivalent/kg; Activity (Canis familiaris [19]): 0.42 milliequivalent/kg; Activity (Canis familiaris [20]): 2 milliequivalent/kg; Activity (Canis familiaris [21]): 1 milliequivalent/kg; Activity (Canis familiaris [17]): 0.89 milliequivalent/kg
O=CNc1cc(C(=O)O)cc(SCc2ccccc2)c1Oc1ccccc1 |  |  |  |  | inactive | 
O=CNc1cc(C(=O)O)cc(SCc2ccsc2)c1Oc1ccccc1 | 11 | 1.3 | 1.9 | 0.45 |  | 
CCCNC(=O)Nc1cc(C(=O)O)cc(NCc2ccccc2)c1Oc1ccccc1 | 4 | 0.4 | 0.3 | 0.12 |  | Activity (Canis familiaris [22]): 1.1 milliequivalent/kg; Activity (Canis familiaris [23]): 0.4 milliequivalent/kg; Activity (Canis familiaris [24]): 11 mL/kg; Activity (Canis familiaris [25]): 1.9 milliequivalent/kg
CNC(=O)Nc1cc(C(=O)O)cc(NCc2ccccc2)c1Oc1ccccc1 | 8 | 0.7 | 1.1 | 0.2 |  | 
O=CNc1cc(C(=O)O)cc(NCc2ccccc2)c1-c1ccccc1 | 12 | 1.6 | 1.7 | 0.43 |  | 
CN(C)c1cc(C(=O)O)cc(OCc2ccccc2)c1C(=O)c1ccccc1 |  |  |  |  | inactive | Activity (Canis familiaris [10]; Canis lupus familiaris, Urine): inactive; Activity (Canis familiaris [11]; Canis lupus familiaris, Urine): inactive; Activity (Canis familiaris [12]; Canis lupus familiaris, Urine): inactive
CCCCOc1cc(C(=O)O)cc(NC=O)c1C(=O)c1ccccc1 | 17 | 2.1 |  |  |  | Activity (Canis familiaris [18]): 6 mL/kg; Activity (Canis familiaris [21]): 0.5 milliequivalent/kg

Compound | Activity (Canis familiaris [9]) [mL/kg] | Activity (Canis familiaris [10]) [milliequivalent/kg] | Activity (Canis familiaris [11]) [milliequivalent/kg] | Activity (Canis familiaris [12]) [milliequivalent/kg] | Activity (Canis familiaris [9]; Canis lupus familiaris, Urine) | also measured
O=C(CCl)Nc1cc(C(=O)O)cc(OCc2ccccc2)c1C(=O)c1ccccc1 |  |  |  |  | inactive | 
CCNc1cc(C(=O)O)cc(OCc2ccccc2)c1C(=O)c1ccccc1 |  |  |  |  | inactive | Activity (Canis familiaris [10]; Canis lupus familiaris, Urine): inactive; Activity (Canis familiaris [11]; Canis lupus familiaris, Urine): inactive; Activity (Canis familiaris [12]; Canis lupus familiaris, Urine): inactive
CC(=O)Nc1cc(C(=O)O)cc(NCc2ccccc2)c1Oc1ccccc1 | 11 | 1.4 | 2.1 | 0.55 |  | Activity (Canis familiaris [22]): 2.8 milliequivalent/kg; Activity (Canis familiaris [23]): 0.8 milliequivalent/kg; Activity (Canis familiaris [24]): 27 mL/kg; Activity (Canis familiaris [25]): 3.8 milliequivalent/kg
CC(C)CCSc1cc(C(=O)O)cc(NC=O)c1C(=O)c1ccccc1 |  |  |  |  |  | Activity (Canis familiaris [3]): 15 mL/kg; Activity (Canis familiaris [4]): 1.9 milliequivalent/kg; Activity (Canis familiaris [5]): 0.39 milliequivalent/kg; Activity (Canis familiaris [7]): 1.6 milliequivalent/kg
CCN(C=O)c1cc(C(=O)O)cc(OCc2ccccc2)c1C(=O)c1ccccc1 |  |  |  |  | inactive | Activity (Canis familiaris [10]; Canis lupus familiaris, Urine): inactive; Activity (Canis familiaris [11]; Canis lupus familiaris, Urine): inactive; Activity (Canis familiaris [12]; Canis lupus familiaris, Urine): inactive
CC(=O)Nc1cc(C(=O)O)cc(OCc2ccccc2)c1-c1ccccc1 | 8 | 1 | 1.1 | 0.22 |  | 
CCCSc1cc(C(=O)O)cc(NC=O)c1C(=O)c1ccccc1 | 8 | 1 | 1.2 | 0.42 |  | 
O=C(O)c1cc(NC(=O)c2ccccc2)c(C(=O)c2ccccc2)c(OCc2ccccc2)c1 |  |  |  |  | inactive | 
CCCCOc1cc(C(=O)O)cc(NC(C)=O)c1C(=O)c1ccccc1 |  |  |  |  |  | Activity (Canis familiaris [3]): 18 mL/kg; Activity (Canis familiaris [4]): 2.5 milliequivalent/kg; Activity (Canis familiaris [5]): 0.53 milliequivalent/kg; Activity (Canis familiaris [7]): 2.1 milliequivalent/kg
C=CCSc1cc(C(=O)O)cc(NC=O)c1C(=O)c1ccccc1 |  |  |  |  | inactive | 
CN(C=O)c1cc(C(=O)O)cc(OCc2ccccc2)c1C(=O)c1ccccc1 |  |  |  |  | Active | Activity (Canis familiaris [10]; Canis lupus familiaris, Urine): Active; Activity (Canis familiaris [11]; Canis lupus familiaris, Urine): Active; Activity (Canis familiaris [12]; Canis lupus familiaris, Urine): Active
CN(C)CC(=O)Nc1cc(C(=O)O)cc(OCc2ccccc2)c1C(=O)c1ccccc1 |  |  |  |  |  | Activity (Canis familiaris [3]; Canis lupus familiaris, Urine): inactive
CC(=O)Nc1cc(C(=O)O)cc(NCc2ccccc2)c1C(=O)c1ccccc1 | 6 | 0.4 | 0.4 | 0.21 |  | Activity (Canis familiaris [22]): 1.7 milliequivalent/kg; Activity (Canis familiaris [23]): 0.58 milliequivalent/kg; Activity (Canis familiaris [24]): 22 mL/kg; Activity (Canis familiaris [25]): 2.2 milliequivalent/kg
CNc1cc(C(=O)O)cc(OCc2ccccc2)c1C(=O)c1ccccc1 |  |  |  |  | inactive | Activity (Canis familiaris [10]; Canis lupus familiaris, Urine): inactive; Activity (Canis familiaris [11]; Canis lupus familiaris, Urine): inactive; Activity (Canis familiaris [12]; Canis lupus familiaris, Urine): inactive
NC(=O)Nc1cc(C(=O)O)cc(NCc2ccccc2)c1Oc1ccccc1 | 13 | 1.3 | 1.7 | 0.33 |  | 
CCCOc1cc(C(=O)O)cc(NC=O)c1C(=O)c1ccccc1 | 10 | 2 | 1.2 | 0.52 |  | 
